In publication PMC5571211 (Scientific Reports, 2017):
Each block holds one compound with its values, some of them ahead of it.

Experiments:
human recombinant LTA4-H = target: T1, human recombinant LTA4-H (Homo sapiens, UniProt P09960); test: LTA4 hydrolase activity, co-incubation of isolated 5-LOX and LTA4-H; assay type: biochemical; conditions: diflapolin up to 10 µM, AUDA 10 µM, SC57461A 0.3 µM, zileuton 3 µM
T1 construct: gift of Dr. E. Proschak, Goethe University, Frankfurt
T1 sequence (P09960 2-611 limits assumed): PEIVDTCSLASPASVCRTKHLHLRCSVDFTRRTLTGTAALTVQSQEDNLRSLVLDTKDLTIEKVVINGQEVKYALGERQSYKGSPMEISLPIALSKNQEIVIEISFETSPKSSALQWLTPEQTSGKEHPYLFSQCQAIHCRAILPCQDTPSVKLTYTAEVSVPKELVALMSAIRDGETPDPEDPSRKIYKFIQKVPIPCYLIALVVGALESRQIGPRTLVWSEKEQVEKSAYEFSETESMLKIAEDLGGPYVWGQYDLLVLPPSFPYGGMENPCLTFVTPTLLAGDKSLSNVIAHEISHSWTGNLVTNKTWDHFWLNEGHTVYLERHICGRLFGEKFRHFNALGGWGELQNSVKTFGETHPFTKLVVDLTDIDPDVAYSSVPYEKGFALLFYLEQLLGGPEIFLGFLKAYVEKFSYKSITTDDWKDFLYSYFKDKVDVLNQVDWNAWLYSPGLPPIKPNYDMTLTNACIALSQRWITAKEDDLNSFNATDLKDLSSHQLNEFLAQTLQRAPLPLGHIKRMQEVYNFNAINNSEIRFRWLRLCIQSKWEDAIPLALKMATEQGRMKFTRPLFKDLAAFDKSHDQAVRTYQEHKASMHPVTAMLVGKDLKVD
Method: In order to determine the activity of LTA4-H, aliquots of human recombinant 5-LOX (0.5 µg) and 10 µg of human recombinant LTA4-H (kindly provided by Dr. E. Proschak, Goethe University, Frankfurt, Germany) were suspended in 1 mL PBS containing 1 mM EDTA and pre-incubated with test compounds or vehicle (0.1% DMSO) for 10 min on ice. The specific LTA4-H inhibitor SC57461A (0.3 µM) was used as reference drug. Subsequently, incubations were stimulated with 20 µM AA and 2 mM CaCl2 for additional 10 min at 37 °C. The reaction was stopped by 1 volume ice-cold methanol, 530 µL acidified PBS and 200 ng of PGB1 as internal standard were added and subjected to solid phase extraction. All LTB4 isomers were analyzed by HPLC as described above.

[1] = test system: AA release (cPLA2) in neutrophils; test: [3H]-labeled arachidonic acid release in neutrophils; assay type: cell-based, human; conditions: [3H]AA-pre-labelled neutrophils; diflapolin 1 µM, RSC-3388 10 µM
Method: Freshly isolated human neutrophils were resuspended in RPMI 1640 medium to a final cell density of 10^7 cells/mL and incubated with 0.5 µCi/mL of [^3H]-labeled arachidonic acid ([^3H]-AA), corresponding to a concentration of 5 nM of the fatty acid, for 2 hrs (37 °C, 5% CO2). Cells were washed twice to remove unincorporated [^3H]-AA and resuspended in PBS containing glucose (0.1%), fatty acid-free BSA (2 mg/mL) and CaCl2 (1 mM). […] The reaction was stopped on ice and cells were centrifuged at 1,200 rpm (10 min, 4 °C). The collected supernatants were combined with 2 mL of liquid scintillation counting solution (Rotiszint eco plus, Carl Roth, Karlsruhe, Germany) and assayed for radioactivity by scintillation counting (Micro Beta Trilux, Perkin Elmer, Waltham, MA).

recombinant LTA4-H = test system: recombinant LTA4-H; set-up: method as in PMID 11805219; conditions: read-out: IC50 against recombinant LTA4-H; cited from earlier work
sEH in HepG2 cells = target: T2, sEH in HepG2 cells (Homo sapiens, UniProt P34913); test: 14,15-DiHETrE formation in HepG2 cells (cell-based sEH assay)
T2 construct: sEH is constitutively expressed in the human liver cancer cell line HepG2; endogenous in cells; host or cells: HepG2
T2 sequence (P34913 1-555): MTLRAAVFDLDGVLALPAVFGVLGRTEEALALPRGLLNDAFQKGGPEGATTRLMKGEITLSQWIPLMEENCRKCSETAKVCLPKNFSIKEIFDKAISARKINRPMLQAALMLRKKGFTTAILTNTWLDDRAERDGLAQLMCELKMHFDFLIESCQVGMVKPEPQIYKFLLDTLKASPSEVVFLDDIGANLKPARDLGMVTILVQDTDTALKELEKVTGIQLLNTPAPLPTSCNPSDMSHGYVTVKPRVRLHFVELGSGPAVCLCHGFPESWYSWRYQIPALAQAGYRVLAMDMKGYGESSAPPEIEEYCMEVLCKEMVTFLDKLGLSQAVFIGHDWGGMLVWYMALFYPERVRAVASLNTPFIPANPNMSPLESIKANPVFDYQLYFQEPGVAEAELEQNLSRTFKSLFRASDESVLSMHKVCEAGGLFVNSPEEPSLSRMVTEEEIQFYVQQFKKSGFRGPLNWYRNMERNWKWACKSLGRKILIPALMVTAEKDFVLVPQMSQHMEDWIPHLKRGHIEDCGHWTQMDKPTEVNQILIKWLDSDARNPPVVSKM
Method: To assay the activity of sEH in a cell-based model, HepG2 cells were harvested by trypsinization, pelleted (1,200 rpm, 5 min, 4 °C) and resuspended in PGC buffer to a final concentration of 1.5 × 10^6 cells/mL. […] Briefly, samples were acidified with four volumes of MilliQ water pH 3.5 containing PBS-HCl and subjected to Waters Sep-Pak® Vac 6cc columns (Waters, Milford, MA, USA), washed once with MilliQ and hexane, and eluted with methylformiate. The nitrogen-dried samples were dissolved in 50% methanol, and 14,15-DiHETrE formation was measured by UPLC-MS/MS using an Acquity™ UPLC system (Waters, Milford, MA, USA) and a QTRAP 5500 Mass Spectrometer (ABSciex, Darmstadt, Germany) equipped with a Turbo V™ Source and electrospray ionization (ESI). […] Ion spray voltage was set to 4000 V, the heater temperature to 500 °C, the declustering potential to 50–80 eV, the entrance potential to 10 eV, the collision cell exit potential to 10–13 eV, collision energies of 10 eV, the spray gas pressure to 40 psi, medium collision gas and the curtain gas pressure to 35 psi.

monocytes = test: Acute cytotoxicity, MTT assay in monocytes; assay type: cell-based, human; conditions: 24 or 48 hrs; diflapolin 10 µM, staurosporine 3 µM
Method: Acute cytotoxicity of the compounds was determined using freshly isolated monocytes. Cells (0.2 × 10^6) per sample were seeded in 100 µL buffer on 96-well plates and treated with the test compounds and appropriate controls for 24 or 48 hrs (37 °C, 5% CO2). After addition of MTT (5 mg/mL) for 2 h (37 °C, 5% CO2), cells were lysed by SDS treatment (10%, pH 4.5) for 16–20 hrs and formazan formation was determined by measurement of absorbance at 570 nm.

[2] = target: T3, co-localization of 5-LOX with FLAP (Homo sapiens, UniProt P20292); test: Immunofluorescence microscopy of 5-LOX subcellular redistribution / co-localization with FLAP; assay type: cell-based; conditions: human neutrophils or monocytes; diflapolin 1 µM, MK886 0.3 µM, zileuton 3 µM
T3 construct: endogenous in cells; host or cells: freshly isolated human monocytes (immunofluorescence also in neutrophils)
T3 sequence (P20292 1-161): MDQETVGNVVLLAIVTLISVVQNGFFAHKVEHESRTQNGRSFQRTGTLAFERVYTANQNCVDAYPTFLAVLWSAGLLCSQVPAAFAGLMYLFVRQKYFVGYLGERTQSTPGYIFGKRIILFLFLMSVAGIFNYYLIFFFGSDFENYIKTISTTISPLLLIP
Method: The incubations were stopped by paraformaldehyde fixation (4%, 20 min, RT) and cells were permeabilized using 100% ice-cold acetone (5 min, 4 °C). Blocking with non-immune goat serum (30 min, RT) was performed prior to overnight incubation (4 °C) with primary monoclonal-mouse-anti-5-LOX antibody (1:100 dilution, a generous gift from Dr. D. Steinhilber, Goethe University Frankfurt, Germany) and polyclonal-rabbit-anti-FLAP antibody (5 µg/mL, Abcam, Cambridge, UK). […] Cells were visualized by a Zeiss Axiovert 200 M microscope, and a Plan Neofluar × 100/1.30 Oil (DIC III) objective (Carl Zeiss, Jena, Germany) and image acquisition was performed using an AxioCam MR camera (Carl Zeiss).

5-LOX/FLAP complex = target: T4, 5-LOX/FLAP complex (Homo sapiens, UniProt P20292); test: Proximity ligation assay of 5-LOX/FLAP complex assembly in monocytes; assay type: cell-based; conditions: diflapolin 1 µM, MK886 0.3 µM, zileuton 3 µM
T4 construct: endogenous in cells; host or cells: freshly isolated human monocytes (immunofluorescence also in neutrophils)
T4 sequence (P20292 1-161): T3 sequence (P20292 1-161)
Method: In situ protein interaction of 5-LOX and FLAP was analyzed by proximity ligation assay as described before[37] and referring to the manufacturer’s protocol. In brief, freshly isolated monocytes were treated as described for IF above. Overnight incubations with primary antibodies were then treated for 1 h (37 °C) with oligonucleotide-labeled specific secondary antibodies (PLA probes anti-mouse MINUS and anti-rabbit PLUS). Formation of circled DNA sequences was induced by addition of ligase and oligonucleotide mixture (30 min at 37 °C). Rolling-circle-amplification of newly generated DNA template was performed (90 min, 37 °C) including hybridization of fluorescently-labeled oligonucleotides within the formed DNA strands, resulting in visualization of protein-protein interactions recognized as magenta-stained dots. Nuclear DNA staining with DAPI and image acquisition was performed as described above. Overview images were obtained using a Plan Neofluar 40/1.30 Oil (DIC III) objective (Carl Zeiss).

[3] = test system: 5-LOX activity in monocytes, neutrophils; test: cells; conditions: Homo sapiens, read-out: IC50 5-LOX activity in cell-based assays
Method: In order to examine 5-LOX product formation in intact human neutrophils and monocytes, freshly isolated cells were resuspended in PBS buffer containing 0.1% glucose and 1 mM CaCl2 (PGC buffer) to a final cell density of 5 × 10^6 or 2 × 10^6, respectively. […] 5-LOX product formation was stopped by addition of one volume of ice-cold methanol, samples were subjected to solid phase extraction after addition of 200 ng PGB1 as internal standard and 5-LOX products were analyzed by RP-HPLC as described above.

effect on LTA4-H activity (LTB4 formation) (human recombinant LTA4-H): showed the same pattern as diflapolin
SMILES: O=C(O)CCCCCCCCCCCNC(=O)NC12CC3CC(CC(C3)C1)C2 [AUDA]

SMILES: CC(C)CN(Cc1ccccc1-c1ccccc1)[C@@H]1C[C@@H](CNC(=O)/C=C/c2ccc(/C=C3\SC(=O)NC3=O)cc2)N(C(=O)c2ccccc2C(=O)c2ccc(F)cc2F)C1 [RSC-3388]
release of AA upon A23187-stimulation [1]: suppressed AA liberation

SMILES: CN(CCCOc1ccc(Cc2ccccc2)cc1)CCC(=O)O.Cl [SC57461A, 3-[methyl[3-[4-(phenylmethyl)phenoxy]propyl]amino]propanoic acid HCl]
IC50 (recombinant LTA4-H): 0.1 µM
effect on sEH in the cell-based sEH assay (sEH in HepG2 cells): no impact
effect on LTA4-H activity (LTB4 formation) (human recombinant LTA4-H): blocked LTB4 biosynthesis

SMILES: CN[C@@H]1C[C@H]2O[C@@](C)([C@@H]1OC)n1c3ccccc3c3c4c(c5c6ccccc6n2c5c31)C(=O)NC4 [staurosporine]
viability of monocytes, MTT assay (monocytes): strongly impaired cell viability

SMILES: CC(c1cc2ccccc2s1)N(O)C(N)=O (stereo not shown) [zileuton]
co-localization of 5-LOX with FLAP [2]: neither diflapolin nor the FLAP inhibitor MK886 or the 5-LOX inhibitor zileuton prevented co-localization
5-LOX/FLAP complex assembly (PLA) (5-LOX/FLAP complex): failed
IC50 [3]: 1.5 µM
effect on LTA4-H activity (LTB4 formation) (human recombinant LTA4-H): reduced the formation of all LTB4 isomers
